# Source: patent publication US20240382508A1, “REGENERATIVE AGENT FOR BONE TISSUE AND LUNG TISSUE, AND PHARMACEUTICAL COMPOSITION FOR REGENERATING BONE TISSUE AND LUNG TISSUE” (NIIGATA UNIVERSITY, priority 2021, published 2024)
# Key:
# [1] = test system: experimental periodontitis model mice; experiment: bone regeneration in experimental periodontitis model mice (teeth ligated with silk threads); type: in vivo, mouse
# From the text: Experimental periodontitis model mice in which teeth are ligated with silk threads are useful models for inflammatory bone destruction research because inflammations and bone resorption occur in about 10 days after the ligation. The above-described experimental periodontitis models were produced by using 6-week-old wild-type mice (N=8, male C57BL/6N mice, manufactured by CLEA Japan, Inc.), 22-month-old aging mice (N=4, male C57BL/6N mice, manufactured by CLEA Japan, Inc.), and 6-week-old DEL-1-deficient mice (N=8, male C57BL/6N mice (manufactured by CLEA Japan, Inc.), a method for producing the deficient mice was as described in Non Patent Document 1), the silk threads were removed 10 days after the ligation, a remission phase of inflammation of 5 days passed, and in the wild-type mice, new bone formation was recognized at the site of resorbed bone defect while no repair mechanism of the periodontal tissue by DEL-1 was recognized.
# The experimental periodontitis models described in Example 1 were produced by using 6-week-old wild-type mice (N=8, male C57BL/6N mice, manufactured by CLEA Japan, Inc.), 22-month-old aging mice (N=4, male C57BL/6N mice, manufactured by CLEA Japan, Inc.), and 6-week-old DEL-1-deficient mice (N=8, male C57BL/6N mice (manufactured by CLEA Japan, Inc.), a method for producing the deficient mice was as described in Non Patent Document 1), the silk threads were removed 10 days after the ligation to experimentally induce periodontitis, subsequently a bone regeneration period of 5 days was provided, and then the amount of regeneration of resorbed bone was measured using a stereomicroscope and image measurement software (manufactured by Nikon Corporation). Erythromycin (10 mg/kg) and ethanol (final concentration 0.1% by mass) were intraperitoneally administered once after the removal of the silk threads. In addition, DEL-1 (1 μg) and Fc control (0.84 μg) were directly inoculated into the gingiva after the removal of the silk threads. The results are shown in FIG. 3 (left: wild-type mice, right: DEL-1-deficient mice) and FIG. 4 (aging mice).
# Next, the experimental periodontitis model described in Example 1 was produced by using 22-month-old aging mice (N=4, male C57BL/6N mouse, manufactured by CLEA Japan, Inc.), the silk threads were removed 10 days after the ligation to experimentally induce periodontitis, subsequently a bone regeneration period of 5 days was provided, and the amount of regeneration of resorbed bone was measured using a stereomicroscope and image measurement software (manufactured by Nikon Corporation). Erythromycin (ERM) (20 mg/kg), azithromycin (AZM) (20 mg/kg), clarithromycin (CLM) (20 mg/kg), and ethanol (final concentration 0.1% by mass) as a control were intraperitoneally administered once after the removal of the silk threads. […] In addition, there was no difference in the amount of bone regeneration between the macrolide antimicrobial agent-administered groups.
# [2] = test system: RUNX2 mRNA, Sp7 mRNA, and Bglap mRNA; experiment: RT-PCR of bone regeneration genes in osteoblasts; type: cell-based, mouse; settings: osteoblasts derived from wild-type mice
# Procedure: Next, the proportion (%) of bone nodules with respect to the observation region in the above-described osteoblasts was calculated from microscopic images by using image processing software (NIH Image). In addition, RNA was extracted from each of the osteoblasts by using an RNeasy Kit (manufactured by QIAGEN NV), subsequently cDNA was synthesized by using a cDNA synthesis kit (manufactured by Thermo Fisher Scientific, Inc.), and the relative expression levels of RUNX2 mRNA, Sp7 mRNA, and Bglap mRNA, which are important for bone regeneration, were checked by an RT-PCR method (Quantstudio3, Thermo Fisher Scientific, Inc.). Regarding primers, designed primers manufactured by Thermo Fisher Scientific, Inc. were used. The Assay IDs of the primers used are shown below.
# [3] = test system: rheumatoid arthritis model mice; experiment: rheumatoid arthritis (CAIA) model, microCT of hind limb; type: in vivo, mouse
# Procedure: Rheumatoid arthritis (CAIA) (a collagen antibody-administered arthritis-inducing cocktail manufactured by Chondrex, Inc. was used, and the details of the production method were performed according to the protocol provided by Iwai Chemicals Co., Ltd.) was induced by using 6-week-old wild-type mice (N=4, male C57BL/6N mice, manufactured by CLEA Japan, Inc.) and 6-week-old DEL-1-deficient mice (N=4, male C57BL/6N mice (manufactured by CLEA Japan, Inc.), the method for producing the deficient mice was as described in Non Patent Document 1), and erythromycin (10 mg/kg) was intraperitoneally administered once every 3 days from the 1st day after the induction. Regarding the DEL-1-deficient mice, a group in which DEL-1 (10 μg) was administered through the tail vein once every 3 days from the 1st day after the CAIA induction, was also prepared. Nine days after the administration, the hind limb of each mouse was examined by microCT.
# acute lung disorder mice = experiment: LPS-induced acute lung disorder, HE staining of lung tissue; type: in vivo, mouse; settings: 10 mg/kg intraperitoneally once a day for two weeks
# Procedure: Acute lung disorder was induced by administering lipopolysaccharide (LPS) to the tracheae and bronchi of mice (the details of a production method were as described in Non Patent Document 1). Erythromycin (10 mg/kg) was administered to 6-week-old wild-type mice (N=4, male C57BL/6N mice, manufactured by CLEA Japan, Inc.) and 6-week-old DEL-1-deficient mice (N=4, male C57BL/6N mice (manufactured by CLEA Japan, Inc.), a method for producing the deficient mice was as described in Non-Patent Document 1), by intraperitoneal administration once a day for a total of two weeks. After the administration, the lungs were extracted from each mouse and fixed, and then slice preparations were produced. Next, hematoxylin and eosin (HE) staining was performed. Observation images (magnifications: 10 times and 200 times) obtained with a microscope (manufactured by Nikon Corporation, ECLIPSE Ni-E) are shown in FIG. 7A to 7C.
compound,measurement,setting,value
CC[C@H]1OC(=O)[C@H](C)[C@@H](O[C@H]2C[C@@](C)(OC)[C@@H](O)[C@H](C)O2)[C@H](C)[C@@H](O[C@@H]2O[C@H](C)C[C@H](N(C)C)[C@H]2O)[C@](C)(O)C[C@@H](C)C(=O)[C@H](C)[C@@H](O)[C@]1(C)O [erythromycin],bone regeneration (FIG. 3),"[1]; 6-week-old wild-type mice, erythromycin 10 mg/kg intraperitoneally once, 5 days regeneration period",bone regeneration was recognized irrespective of the presence or absence of the administration of erythromycin
same,bone regeneration (FIG. 9),"[1]; 22-month-old aging mice, 20 mg/kg intraperitoneally once, 5 days regeneration period",bone regeneration was recognized
same,bone regeneration (FIG. 4),"[1]; 22-month-old aging mice, erythromycin 10 mg/kg intraperitoneally once or DEL-1 1 μg into the gingiva, 5 days",bone regeneration was recognized
same,bone regeneration (FIG. 3),"[1]; DEL-1-deficient mice, erythromycin 10 mg/kg intraperitoneally once or DEL-1 1 μg into the gingiva, 5 days",bone regeneration was not recognized
same,expression of Bglap mRNA,[2],increases in the expression
same,expression of RUNX2 mRNA,[2],increases in the expression
same,expression of Sp7 mRNA,[2],increases in the expression
same,bone destruction (FIG. 6),"[3]; DEL-1-deficient mice, erythromycin 10 mg/kg intraperitoneally or DEL-1 10 μg tail vein once every 3 days",bone destruction was not suppressed
same,bone destruction (FIG. 6),"[3]; wild-type mice, erythromycin 10 mg/kg intraperitoneally once every 3 days",bone destruction was suppressed
same,tissue repair and restructuring of the alveolar structure (FIG. 7C),acute lung disorder mice; DEL-1-deficient mouse,normal tissue repair and restructuring of the alveolar structure were not recognized
same,tissue repair and restructuring of the alveolar structure (FIG. 7B),acute lung disorder mice; wild-type mouse,normal tissue repair and restructuring of the alveolar structure were recognized
